pIC50: −log10 of the molar value.
Target: T1, PPARγ (Homo sapiens, UniProt P37231)
T1 construct: made in house
T1 sequence (P37231 1-505): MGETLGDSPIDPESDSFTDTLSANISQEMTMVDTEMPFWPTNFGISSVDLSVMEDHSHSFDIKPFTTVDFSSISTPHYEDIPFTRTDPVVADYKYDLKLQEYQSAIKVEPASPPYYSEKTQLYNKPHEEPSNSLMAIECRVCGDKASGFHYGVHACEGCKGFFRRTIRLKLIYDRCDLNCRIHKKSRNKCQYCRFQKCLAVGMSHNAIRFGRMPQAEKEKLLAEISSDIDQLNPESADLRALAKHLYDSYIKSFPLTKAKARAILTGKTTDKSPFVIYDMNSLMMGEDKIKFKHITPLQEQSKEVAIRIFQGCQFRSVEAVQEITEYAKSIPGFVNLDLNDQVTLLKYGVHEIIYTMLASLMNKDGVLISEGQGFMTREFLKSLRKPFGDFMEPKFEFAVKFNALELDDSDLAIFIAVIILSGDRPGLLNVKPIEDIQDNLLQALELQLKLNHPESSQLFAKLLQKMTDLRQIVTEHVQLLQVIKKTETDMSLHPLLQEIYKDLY
Assay: PPARγ ligand binding assay utilizing [3H]-BRL 49653 as the radioligand (filtration)
Settings: concentration required to reduce by 50% the specific binding of [3H]-BRL 49653
Summary of the method: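 Displacement of 10 nM [3H]-BRL 49653 from PPARγ-GST fusion protein in Tris-HCl pH 8.0 buffer with KCl, DTT, BSA and NP-40, 15 min incubation, then glutathione-bead capture for 1 h. Bound radioactivity counted after filtration washes; IC50 is concentration giving 50% loss of specific binding, reported in ranges.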

| pIC50 | SMILES |
| --- | --- |
| > 6.00 | CCCC(=O)c1nc(NS(=O)(=O)c2ccc(C(F)(F)F)cc2Cl)ccc1Sc1ccc(S(=O)(=O)C(CC)CC)cc1 [Compound 116, N-{6-Butyryl-5-[4-(pentane-3-sulfonyl)-phenylsulfanyl]-pyridin-2-yl}-2-chloro-4-trifluoromethyl-benzenesulfonamide] |
| > 6.00 | CCCC(=O)c1nc(NS(=O)(=O)c2ccc(Cl)cc2Cl)ccc1Sc1ccc(S(=O)(=O)NCC)cc1 [Compound 118, N-[6-Butyryl-5-(4-ethylsulfamoyl-phenylsulfanyl)-pyridin-2-yl]-2,4-dichloro-benzenesulfonamide] |
| > 6.00 | CCNS(=O)(=O)c1ccc(Sc2ccc(NS(=O)(=O)c3ccc(Cl)cc3Cl)nc2C(=O)C2CC2)cc1 [Compound 119, 2,4-Dichloro-N-[6-cyclopropanecarbonyl-5-(4-ethylsulfamoyl-phenylsulfanyl)-pyridin-2-yl]-benzenesulfonamide] |
| > 6.00 | CCCC(=O)c1nc(NS(=O)(=O)c2ccc(C(F)(F)F)cc2Cl)ccc1Sc1ccc(S(=O)(=O)NCC)cc1 [Compound 120, N-[6-Butyryl-5-(4-ethylsulfamoyl-phenylsulfanyl)-pyridin-2-yl]-2-chloro-4-trifluoromethyl-benzenesulfonamide] |
| > 6.00 | CCNS(=O)(=O)c1ccc(Sc2ccc(NS(=O)(=O)c3ccc(C(F)(F)F)cc3Cl)nc2C(=O)C2CC2)cc1 [Compound 121, 2-Chloro-N-[6-cyclopropanecarbonyl-5-(4-ethylsulfamoyl-phenylsulfanyl)-pyridin-2-yl]-4-trifluoromethyl-benzenesulfonamide] |
| > 6.00 | CCCCc1nc(NS(=O)(=O)c2ccc(Cl)cc2Cl)ccc1Sc1ccc(S(=O)(=O)N2CCOCC2)cc1 [Compound 124, N-{6-Butyl-5-[4-(morpholine-4-sulfonyl)-phenylsulfanyl]-pyridin-2-yl}-2,4-dichloro-benzenesulfonamide] |

The next lines start with the compound.

| SMILES | pIC50 |
| --- | --- |
| O=C(c1nc(NS(=O)(=O)c2ccc(C(F)(F)F)cc2Cl)ccc1Sc1ccc(S(=O)(=O)C2CCCC2)cc1)C1CC1 [Compound 115, 2-Chloro-N-[5-(4-cyclopentanesulfonyl-phenylsulfanyl)-6-cyclopropanecarbonyl-pyridin-2-yl]-4-trifluoromethyl-benzenesulfonamide] | > 6.00 |
| CCC(CC)S(=O)(=O)c1ccc(Sc2ccc(NS(=O)(=O)c3ccc(C(F)(F)F)cc3Cl)nc2C(=O)C2CC2)cc1 [Compound 117, 2-Chloro-N-{6-cyclopropanecarbonyl-5-[4-(pentane-3-sulfonyl)-phenylsulfanyl]-pyridin-2-yl}-4-trifluoromethyl-benzenesulfonamide] | > 5.00 |
| CCCCc1nc(NS(=O)(=O)c2ccc(Cl)cc2Cl)ccc1Sc1ccc(S(=O)(=O)N2CCCCC2)cc1 [Compound 122, N-{6-Butyl-5-[4-(piperidine-1-sulfonyl)-phenylsulfanyl]-pyridin-2-yl}-2,4-dichloro-benzenesulfonamide] | > 6.00 |
| CCCCc1nc(NS(=O)(=O)c2ccc(C(F)(F)F)cc2Cl)ccc1Sc1ccc(S(=O)(=O)N2CCCCC2)cc1 [Compound 123, N-{6-Butyl-5-[4-(piperidine-1-sulfonyl)-phenylsulfanyl]-pyridin-2-yl}-2-chloro-4-trifluoromethyl-benzenesulfonamide] | > 6.00 |
| CCCCc1nc(NS(=O)(=O)c2ccc(C(F)(F)F)cc2Cl)ccc1Sc1ccc(S(=O)(=O)N2CCOCC2)cc1 [Compound 125, N-{6-Butyl-5-[4-(morpholine-4-sulfonyl)-phenylsulfanyl]-pyridin-2-yl}-2-chloro-4-trifluoromethyl-benzenesulfonamide] | > 6.00 |
| CCCCCOC(=O)c1cc(NS(=O)(=O)c2ccc(Cl)cc2Cl)ncc1Sc1ccc(S(=O)(=O)N2CCCCC2)cc1 [Compound 126, 2-(2,4-Dichloro-benzenesulfonylamino)-5-[4-(piperidine-1-sulfonyl)-phenylsulfanyl]-isonicotinic acid pentyl ester] | > 6.00 |

Source: patent US7893077B2, “Bisaryl-sulfonamides” (Amgen Inc., priority 2004, dated 2011)
